Results on 8 molecules are retold here after patent publication EP4722207A1, “OXOISOINDOLINYL-SUBSTITUTED TETRAHYDROPYRIMIDINEDIONE DERIVATIVE AND USE THEREOF” (Gluetacs Therapeutics (Shanghai) Co., Ltd., priority 2023, dated 2024).

Common to all, as to format: cell-based
What all share (settings): compounds at 50 nM and 500 nM, 24 hours

One assay deals with T1, WEE1 (Homo sapiens, UniProt P30291+Q96SW2).
T1 construct: effects of the compounds of the present disclosure on the expression of target proteins in cells; endogenous in cells; host or cells: human PBMCs (hPBMCs)
Put plainly: Western-blot assay, substrate protein degradation in hPBMCs: WEE1.

The target of the next assay is T2, IKZF1 (Homo sapiens, UniProt Q13422+Q96SW2).
T2 construct: effects of the compounds of the present disclosure on the expression of target proteins in cells; endogenous in cells; host or cells: human PBMCs (hPBMCs)
Put plainly: Western-blot assay, substrate protein degradation in hPBMCs: IKZF1.

A further assay deals with T3, IKZF2 (Homo sapiens, UniProt Q96SW2+Q9UKS7).
T3 construct: effects of the compounds of the present disclosure on the expression of target proteins in cells; endogenous in cells; host or cells: human PBMCs (hPBMCs)
Nature of the assay: Western-blot assay, substrate protein degradation in hPBMCs: IKZF2.

Another assay concerns the target T4, IKZF3 (Homo sapiens, UniProt Q96SW2+Q9UKT9).
T4 construct: effects of the compounds of the present disclosure on the expression of target proteins in cells; endogenous in cells; host or cells: human PBMCs (hPBMCs)
Put plainly: Western-blot assay, substrate protein degradation in hPBMCs: IKZF3.

The target of a further assay is T5, CK1α (Homo sapiens, UniProt P48729+Q96SW2).
T5 construct: effects of the compounds of the present disclosure on the expression of target proteins in cells; endogenous in cells; host or cells: human PBMCs (hPBMCs)
Nature of the assay: Western-blot assay, substrate protein degradation in hPBMCs: CK1α.

The target of another assay is T6, GSPT1 (Homo sapiens, UniProt P15170+Q96SW2).
T6 construct: effects of the compounds of the present disclosure on the expression of target proteins in cells; endogenous in cells; host or cells: human PBMCs (hPBMCs)
Nature of the assay: Western-blot assay, substrate protein degradation in hPBMCs: GSPT1.

T6 sequence (P15170 whole entry): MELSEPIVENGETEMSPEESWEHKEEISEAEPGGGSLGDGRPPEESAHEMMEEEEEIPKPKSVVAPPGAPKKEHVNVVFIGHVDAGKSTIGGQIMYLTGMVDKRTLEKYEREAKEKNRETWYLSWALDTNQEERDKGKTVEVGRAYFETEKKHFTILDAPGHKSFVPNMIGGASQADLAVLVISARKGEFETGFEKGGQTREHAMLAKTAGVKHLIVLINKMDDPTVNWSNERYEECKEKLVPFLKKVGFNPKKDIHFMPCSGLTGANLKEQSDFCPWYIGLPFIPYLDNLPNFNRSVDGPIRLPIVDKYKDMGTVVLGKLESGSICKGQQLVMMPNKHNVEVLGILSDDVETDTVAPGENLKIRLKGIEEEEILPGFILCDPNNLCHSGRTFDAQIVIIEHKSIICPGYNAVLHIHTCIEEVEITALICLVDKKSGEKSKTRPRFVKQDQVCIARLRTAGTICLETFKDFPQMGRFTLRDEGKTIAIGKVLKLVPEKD
T6 sequence (Q96SW2 whole entry): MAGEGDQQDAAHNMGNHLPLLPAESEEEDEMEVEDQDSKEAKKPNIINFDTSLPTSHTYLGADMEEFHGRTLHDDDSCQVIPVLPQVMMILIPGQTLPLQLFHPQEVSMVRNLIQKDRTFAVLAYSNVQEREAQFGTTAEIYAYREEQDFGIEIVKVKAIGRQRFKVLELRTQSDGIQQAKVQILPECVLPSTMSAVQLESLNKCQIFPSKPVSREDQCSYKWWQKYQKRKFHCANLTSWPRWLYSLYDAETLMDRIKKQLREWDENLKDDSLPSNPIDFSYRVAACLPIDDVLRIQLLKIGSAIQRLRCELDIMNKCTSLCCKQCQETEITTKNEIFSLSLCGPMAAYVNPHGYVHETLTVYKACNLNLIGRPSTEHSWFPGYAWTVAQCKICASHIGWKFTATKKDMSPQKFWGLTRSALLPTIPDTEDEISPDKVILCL
T6 sequence (Q16531 whole entry partner): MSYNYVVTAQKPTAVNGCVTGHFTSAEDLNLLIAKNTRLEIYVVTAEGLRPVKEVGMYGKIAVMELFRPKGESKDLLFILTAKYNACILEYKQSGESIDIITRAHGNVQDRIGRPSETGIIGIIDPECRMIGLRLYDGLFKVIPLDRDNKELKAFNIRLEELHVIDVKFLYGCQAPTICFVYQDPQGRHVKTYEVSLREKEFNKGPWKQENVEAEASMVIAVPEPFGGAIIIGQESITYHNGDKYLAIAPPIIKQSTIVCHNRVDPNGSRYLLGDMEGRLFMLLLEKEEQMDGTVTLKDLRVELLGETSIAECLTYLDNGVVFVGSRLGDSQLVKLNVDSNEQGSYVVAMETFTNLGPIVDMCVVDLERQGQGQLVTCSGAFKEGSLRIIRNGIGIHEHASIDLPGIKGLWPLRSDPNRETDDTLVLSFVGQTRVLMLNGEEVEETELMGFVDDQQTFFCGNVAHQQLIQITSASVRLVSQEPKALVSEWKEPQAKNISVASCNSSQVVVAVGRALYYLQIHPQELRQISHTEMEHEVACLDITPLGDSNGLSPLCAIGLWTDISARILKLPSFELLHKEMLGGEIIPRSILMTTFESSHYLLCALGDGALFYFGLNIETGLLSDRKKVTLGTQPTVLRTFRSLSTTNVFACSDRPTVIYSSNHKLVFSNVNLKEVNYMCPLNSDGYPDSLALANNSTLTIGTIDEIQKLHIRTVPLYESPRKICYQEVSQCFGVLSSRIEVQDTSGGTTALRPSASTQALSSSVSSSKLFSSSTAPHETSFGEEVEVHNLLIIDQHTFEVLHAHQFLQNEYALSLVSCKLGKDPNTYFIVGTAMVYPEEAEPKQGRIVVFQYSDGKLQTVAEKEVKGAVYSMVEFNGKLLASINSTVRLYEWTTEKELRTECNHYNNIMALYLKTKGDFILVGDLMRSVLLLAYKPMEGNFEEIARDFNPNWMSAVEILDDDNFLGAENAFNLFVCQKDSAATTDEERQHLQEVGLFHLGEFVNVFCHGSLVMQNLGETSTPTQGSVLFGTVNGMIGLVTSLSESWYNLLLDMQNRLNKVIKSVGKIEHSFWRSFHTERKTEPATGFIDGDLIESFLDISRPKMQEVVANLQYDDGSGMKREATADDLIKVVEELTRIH
T1 sequence (P30291 whole entry): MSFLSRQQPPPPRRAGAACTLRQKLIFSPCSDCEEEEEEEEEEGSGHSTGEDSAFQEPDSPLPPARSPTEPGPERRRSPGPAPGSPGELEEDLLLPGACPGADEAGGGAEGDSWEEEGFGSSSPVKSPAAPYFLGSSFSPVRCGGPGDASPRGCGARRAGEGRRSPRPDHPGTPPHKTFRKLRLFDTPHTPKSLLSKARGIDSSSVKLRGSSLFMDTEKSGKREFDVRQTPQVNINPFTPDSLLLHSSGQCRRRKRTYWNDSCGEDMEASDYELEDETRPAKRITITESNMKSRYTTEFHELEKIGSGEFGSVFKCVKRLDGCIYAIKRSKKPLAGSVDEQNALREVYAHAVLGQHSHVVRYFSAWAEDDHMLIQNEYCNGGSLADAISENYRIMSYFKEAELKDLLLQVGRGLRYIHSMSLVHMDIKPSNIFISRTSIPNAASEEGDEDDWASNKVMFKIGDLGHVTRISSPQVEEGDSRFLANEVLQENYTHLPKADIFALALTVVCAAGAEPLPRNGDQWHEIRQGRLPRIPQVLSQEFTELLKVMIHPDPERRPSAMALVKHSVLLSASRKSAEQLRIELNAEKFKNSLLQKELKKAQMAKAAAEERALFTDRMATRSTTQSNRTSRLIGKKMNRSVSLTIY
T1 sequence (Q96SW2 whole entry): as the sequence (Q96SW2 whole entry) above
T1 sequence (Q16531 whole entry partner): as the sequence (Q16531 whole entry partner) above
T3 sequence (Q9UKS7 whole entry): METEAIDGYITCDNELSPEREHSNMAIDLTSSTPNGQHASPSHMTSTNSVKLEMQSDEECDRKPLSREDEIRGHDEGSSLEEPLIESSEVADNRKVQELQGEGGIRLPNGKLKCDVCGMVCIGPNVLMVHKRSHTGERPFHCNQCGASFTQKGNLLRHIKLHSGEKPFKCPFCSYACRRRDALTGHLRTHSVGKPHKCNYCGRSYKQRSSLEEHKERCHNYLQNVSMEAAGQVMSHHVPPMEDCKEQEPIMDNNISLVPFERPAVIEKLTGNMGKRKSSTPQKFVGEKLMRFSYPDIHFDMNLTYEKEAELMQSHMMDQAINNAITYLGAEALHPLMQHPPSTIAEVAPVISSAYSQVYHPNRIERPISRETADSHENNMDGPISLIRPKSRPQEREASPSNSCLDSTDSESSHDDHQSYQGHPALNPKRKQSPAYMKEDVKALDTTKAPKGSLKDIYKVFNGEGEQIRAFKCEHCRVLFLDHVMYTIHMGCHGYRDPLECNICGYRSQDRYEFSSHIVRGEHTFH
T3 sequence (Q96SW2 whole entry): as the sequence (Q96SW2 whole entry) above
T3 sequence (Q16531 whole entry partner): as the sequence (Q16531 whole entry partner) above
T4 sequence (Q9UKT9 whole entry): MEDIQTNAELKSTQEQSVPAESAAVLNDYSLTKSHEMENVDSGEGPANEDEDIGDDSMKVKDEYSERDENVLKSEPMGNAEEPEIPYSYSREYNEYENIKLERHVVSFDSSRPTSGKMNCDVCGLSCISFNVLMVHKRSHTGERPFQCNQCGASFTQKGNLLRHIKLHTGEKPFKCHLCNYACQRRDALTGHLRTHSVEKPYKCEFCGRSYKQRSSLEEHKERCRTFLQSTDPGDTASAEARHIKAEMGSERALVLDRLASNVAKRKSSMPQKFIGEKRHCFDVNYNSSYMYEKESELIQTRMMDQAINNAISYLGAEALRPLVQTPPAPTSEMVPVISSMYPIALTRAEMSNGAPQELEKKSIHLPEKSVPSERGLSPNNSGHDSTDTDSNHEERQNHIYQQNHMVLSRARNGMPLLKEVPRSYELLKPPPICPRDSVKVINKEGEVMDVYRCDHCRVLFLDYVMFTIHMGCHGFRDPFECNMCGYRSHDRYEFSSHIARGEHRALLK
T4 sequence (Q96SW2 whole entry): as the sequence (Q96SW2 whole entry) above
T4 sequence (Q16531 whole entry partner): as the sequence (Q16531 whole entry partner) above
T2 sequence (Q13422 whole entry): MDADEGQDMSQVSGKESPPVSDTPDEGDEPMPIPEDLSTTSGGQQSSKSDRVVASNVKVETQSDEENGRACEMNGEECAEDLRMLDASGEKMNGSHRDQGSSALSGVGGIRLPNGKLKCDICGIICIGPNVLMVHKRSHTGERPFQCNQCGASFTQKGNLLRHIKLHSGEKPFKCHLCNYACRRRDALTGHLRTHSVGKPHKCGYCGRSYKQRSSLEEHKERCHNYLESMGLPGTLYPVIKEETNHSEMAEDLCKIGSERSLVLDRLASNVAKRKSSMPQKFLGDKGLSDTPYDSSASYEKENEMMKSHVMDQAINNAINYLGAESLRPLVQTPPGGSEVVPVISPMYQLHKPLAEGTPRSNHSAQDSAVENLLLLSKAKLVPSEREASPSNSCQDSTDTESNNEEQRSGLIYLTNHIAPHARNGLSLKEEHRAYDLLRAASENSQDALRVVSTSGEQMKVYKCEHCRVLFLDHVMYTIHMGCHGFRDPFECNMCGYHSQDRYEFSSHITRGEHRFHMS
T2 sequence (Q96SW2 whole entry): as the sequence (Q96SW2 whole entry) above
T2 sequence (Q16531 whole entry partner): as the sequence (Q16531 whole entry partner) above

As for `CC1(C)CCC(CN2C3CC2CN(Cc2ccc4c(c2)C(=O)N(N2CCC(=O)NC2=O)C4=O)C3)=C(c2ccc(Cl)cc2)C1` [GT-06459, 5-((6-((4'-chloro-5,5-dimethyl-3,4,5,6-tetrahydro-[1,1'-biphenyl]-2-yl)methyl)-3,6-diazabicyclo[3.1.1]heptan-3-yl)methyl)-2-(2,4-dioxotetrahydropyrimidin-1(2H)-yl)isoindoline-1,3-dione], the “WEE1 substrate protein remaining %” value at WEE1 was “A ("A" is defined as 0% ≤ substrate protein remaining % ≤ 80%)”. For the same molecule, the “IKZF1 substrate protein remaining %” value on IKZF1 was “A ("A" is defined as 0% ≤ substrate protein remaining % ≤ 80%)”. Besides, the “IKZF2 substrate protein remaining %” value at IKZF2 is “A ("A" is defined as 0% ≤ substrate protein remaining % ≤ 80%)”. Moreover, the “IKZF3 substrate protein remaining %” value on IKZF3 is on record as “A ("A" is defined as 0% ≤ substrate protein remaining % ≤ 80%)”. Moreover, the “CK1α substrate protein remaining %” value on CK1α is “A ("A" is defined as 0% ≤ substrate protein remaining % ≤ 80%)”. In addition, the “GSPT1 substrate protein remaining %” value on GSPT1 was “A ("A" is defined as 0% ≤ substrate protein remaining % ≤ 80%)”.
Turning to `O=C1CCN(N2Cc3cc(CN4CCN(c5cccc(F)c5)CC4)ccc3C2=O)C(=O)N1` [GT-06701, 1-(5-((4-(3-fluorophenyl)piperazin-1-yl)methyl)-1-oxoisoindolin-2-yl)dihydropyrimidine-2,4(1H,3H)-dione], on WEE1, the “WEE1 substrate protein remaining %” value is “B ("B" is defined as 80%< substrate protein remaining %≤ 100%)”. The “IKZF1 substrate protein remaining %” value on IKZF1 was “B ("B" is defined as 80%< substrate protein remaining %≤ 100%)”. Also, at IKZF2, the “IKZF2 substrate protein remaining %” value is listed as “B ("B" is defined as 80%< substrate protein remaining %≤ 100%)”. On IKZF3, the “IKZF3 substrate protein remaining %” value is on record as “B ("B" is defined as 80%< substrate protein remaining %≤ 100%)”. For the same molecule, the “CK1α substrate protein remaining %” value on CK1α is “A ("A" is defined as 0% ≤ substrate protein remaining % ≤ 80%)”. The “GSPT1 substrate protein remaining %” value on GSPT1 is “A ("A" is defined as 0% ≤ substrate protein remaining % ≤ 80%)”.
As for `O=C1CCN(N2C(=O)c3ccc(CN4CCN(c5ccccc5)CC4)cc3C2=O)C(=O)N1` [GT-06719, 2-(2,4-dioxotetrahydropyrimidin-1(2H)-yl)-5-((4-phenylpiperazin-1-yl)methyl)isoindoline-1,3-dione], on WEE1, the “WEE1 substrate protein remaining %” value is given as “B ("B" is defined as 80%< substrate protein remaining %≤ 100%)”. Besides, the “IKZF1 substrate protein remaining %” value on IKZF1 is reported as “B ("B" is defined as 80%< substrate protein remaining %≤ 100%)”. At IKZF2, the “IKZF2 substrate protein remaining %” value is reported as “B ("B" is defined as 80%< substrate protein remaining %≤ 100%)”. For the same molecule, on IKZF3, the “IKZF3 substrate protein remaining %” value is recorded as “A ("A" is defined as 0% ≤ substrate protein remaining % ≤ 80%)”. For the same molecule, the “CK1α substrate protein remaining %” value at CK1α is given as “B ("B" is defined as 80%< substrate protein remaining %≤ 100%)”. The “GSPT1 substrate protein remaining %” value on GSPT1 is “B ("B" is defined as 80%< substrate protein remaining %≤ 100%)”.
On to `COc1ccccc1N1CCN(Cc2ccc3c(c2)C(=O)N(N2CCC(=O)NC2=O)C3=O)CC1` [GT-06720, 2-(2,4-dioxotetrahydropyrimidin-1(2H)-yl)-5-((4-(2-methoxyphenyl)piperazin-1-yl)methyl)isoindoline-1,3-dione], for which the “WEE1 substrate protein remaining %” value on WEE1 was “B ("B" is defined as 80%< substrate protein remaining %≤ 100%)”. Also, the “IKZF1 substrate protein remaining %” value on IKZF1 is given as “B ("B" is defined as 80%< substrate protein remaining %≤ 100%)”. Also, the “IKZF2 substrate protein remaining %” value on IKZF2 is recorded as “B ("B" is defined as 80%< substrate protein remaining %≤ 100%)”. In addition, on IKZF3, the “IKZF3 substrate protein remaining %” value is recorded as “A ("A" is defined as 0% ≤ substrate protein remaining % ≤ 80%)”. At CK1α, the “CK1α substrate protein remaining %” value is “B ("B" is defined as 80%< substrate protein remaining %≤ 100%)”. The “GSPT1 substrate protein remaining %” value at GSPT1 is “B ("B" is defined as 80%< substrate protein remaining %≤ 100%)”.
On to `COc1cccc(N2CCN(Cc3ccc4c(c3)C(=O)N(N3CCC(=O)NC3=O)C4=O)CC2)c1` [GT-06721, 2-(2,4-dioxotetrahydropyrimidin-1(2H)-yl)-5-((4-(3-methoxyphenyl)piperazin-1-yl)methyl)isoindoline-1,3-dione], for which, on WEE1, the “WEE1 substrate protein remaining %” value is given as “B ("B" is defined as 80%< substrate protein remaining %≤ 100%)”. Moreover, the “IKZF1 substrate protein remaining %” value at IKZF1 was “A ("A" is defined as 0% ≤ substrate protein remaining % ≤ 80%)”. Besides, the “IKZF2 substrate protein remaining %” value on IKZF2 is listed as “A ("A" is defined as 0% ≤ substrate protein remaining % ≤ 80%)”. Further, the “IKZF3 substrate protein remaining %” value at IKZF3 is “A ("A" is defined as 0% ≤ substrate protein remaining % ≤ 80%)”. The “CK1α substrate protein remaining %” value at CK1α is on record as “B ("B" is defined as 80%< substrate protein remaining %≤ 100%)”. Further, the “GSPT1 substrate protein remaining %” value on GSPT1 is listed as “B ("B" is defined as 80%< substrate protein remaining %≤ 100%)”.
Consider `O=C1CCN(N2C(=O)c3ccc(CN4CCN(c5cccc(Br)c5)CC4)cc3C2=O)C(=O)N1` [GT-06722, 5-((4-(3-bromophenyl)piperazin-1-yl)methyl)-2-(2,4-dioxotetrahydropyrimidin-1(2H)-yl)isoindoline-1,3-dione], for which, on WEE1, the “WEE1 substrate protein remaining %” value is listed as “A ("A" is defined as 0% ≤ substrate protein remaining % ≤ 80%)”. The “IKZF1 substrate protein remaining %” value on IKZF1 was “A ("A" is defined as 0% ≤ substrate protein remaining % ≤ 80%)”. The “IKZF2 substrate protein remaining %” value at IKZF2 is given as “B ("B" is defined as 80%< substrate protein remaining %≤ 100%)”. In addition, the “IKZF3 substrate protein remaining %” value at IKZF3 is recorded as “A ("A" is defined as 0% ≤ substrate protein remaining % ≤ 80%)”. For the same molecule, on CK1α, the “CK1α substrate protein remaining %” value is recorded as “A ("A" is defined as 0% ≤ substrate protein remaining % ≤ 80%)”. Moreover, the “GSPT1 substrate protein remaining %” value at GSPT1 is recorded as “B ("B" is defined as 80%< substrate protein remaining %≤ 100%)”.
As to `O=C1CCN(N2C(=O)c3ccc(CN4CCN(c5cccc(F)c5)CC4)cc3C2=O)C(=O)N1` [GT-06724, 2-(2,4-dioxotetrahydropyrimidin-1(2H)-yl)-5-((4-(3-fluorophenyl)piperazin-1-yl)methyl)isoindoline-1,3-dione], the “WEE1 substrate protein remaining %” value on WEE1 is reported as “A ("A" is defined as 0% ≤ substrate protein remaining % ≤ 80%)”. Also, the “IKZF1 substrate protein remaining %” value at IKZF1 is “A ("A" is defined as 0% ≤ substrate protein remaining % ≤ 80%)”. The “IKZF2 substrate protein remaining %” value on IKZF2 is on record as “B ("B" is defined as 80%< substrate protein remaining %≤ 100%)”. Besides, the “IKZF3 substrate protein remaining %” value on IKZF3 was “B ("B" is defined as 80%< substrate protein remaining %≤ 100%)”. At CK1α, the “CK1α substrate protein remaining %” value was “B ("B" is defined as 80%< substrate protein remaining %≤ 100%)”. In addition, the “GSPT1 substrate protein remaining %” value on GSPT1 is “B ("B" is defined as 80%< substrate protein remaining %≤ 100%)”.
Take `O=C1CCN(N2C(=O)c3ccc(CN4CCN(c5ccc(F)cc5)CC4)cc3C2=O)C(=O)N1` [GT-06725, 2-(2,4-dioxotetrahydropyrimidin-1(2H)-yl)-5-((4-(4-fluorophenyl)piperazin-1-yl)methyl)isoindoline-1,3-dione]: the “WEE1 substrate protein remaining %” value at WEE1 is “B ("B" is defined as 80%< substrate protein remaining %≤ 100%)”. Moreover, on IKZF1, the “IKZF1 substrate protein remaining %” value is listed as “A ("A" is defined as 0% ≤ substrate protein remaining % ≤ 80%)”. Besides, at IKZF2, the “IKZF2 substrate protein remaining %” value is reported as “B ("B" is defined as 80%< substrate protein remaining %≤ 100%)”. In addition, on IKZF3, the “IKZF3 substrate protein remaining %” value is on record as “B ("B" is defined as 80%< substrate protein remaining %≤ 100%)”. Besides, the “CK1α substrate protein remaining %” value on CK1α is given as “B ("B" is defined as 80%< substrate protein remaining %≤ 100%)”. Moreover, the “GSPT1 substrate protein remaining %” value on GSPT1 is reported as “B ("B" is defined as 80%< substrate protein remaining %≤ 100%)”.
